pIC50: −log10 of the molar value.
Legend:
[1] = biological target: JAK3 (Homo sapiens (Human), UniProt P52333); test: Jak Biochemical HTRF Assay (JAK3); conditions: recombinant GST-tagged catalytic domain, [ATP] 2.9 μM
Experimental: (§1) Biological Assays Jak Biochemical HTRF Assay Protocol
The ability of compounds to inhibit the activity of JAK1, JAK2, JAK3, and Tyk2 was measured using a recombinant purified GST-tagged catalytic domain for each enzyme (Invitrogen JAK1 #M4290, JAK2 #M4290, JAK3 #M4290, Tyk2 #M4290) in an HTRF format biochemical assay. […] Subsequent reagent additions employed an Agilent Bravo. […] After equilibration, 2 μL of 10×ATP in 1× assay buffer was added to initiate the kinase reaction and the plates were shaken and then incubated at room temperature for 120 minutes. At the end of the incubation, 20 μL of 2× stop buffer (streptavidin-Dylight 650 (Thermo #84547B100 mL), Eu-tagged pY20 antibody (Perkin Elmer #AD0067), EDTA, HEPES, and Triton) was added to quench the reaction. […] After normalization to untreated controls, the percent inhibition of the HTRF signal at each compound concentration was calculated. The plot of percent inhibition versus the log of compound concentration was fit with a 4-parameter dose response equation to calculate IC50 values.

[2] = biological target: JAK2 (Homo sapiens (Human), UniProt O60674); test: Jak Biochemical HTRF Assay (JAK2); conditions: recombinant GST-tagged catalytic domain, [ATP] 8.5 μM
Experimental: as §1
The ability of compounds to inhibit the activity of JAK1, JAK2, JAK3, and Tyk2 was measured using a recombinant purified GST-tagged catalytic domain for each enzyme (Invitrogen JAK1 #M4290, JAK2 #M4290, JAK3 #M4290, Tyk2 #M4290) in an HTRF format biochemical assay. […] The basic assay protocol is as follows: First, 250 nL of diluted compounds in DMSO were dispensed into the wells of a dry 384-well Black plate (Greiner #781076) using a Labcyte Echo 555 acoustic dispenser. Subsequent reagent additions employed an Agilent Bravo. Next, 18 μL of 1.11× enzyme and 1.11× substrate in 1× assay buffer (Invitrogen kinase buffer # PV3189, 2 mM DTT, 0.05% BSA) were added to the wells and shaken and then preincubated for 30 minutes at room temperature to allow compound binding to equilibrate. After equilibration, 2 μL of 10×ATP in 1× assay buffer was added to initiate the kinase reaction and the plates were shaken and then incubated at room temperature for 120 minutes. At the end of the incubation, 20 μL of 2× stop buffer (streptavidin-Dylight 650 (Thermo #84547B100 mL), Eu-tagged pY20 antibody (Perkin Elmer #AD0067), EDTA, HEPES, and Triton) was added to quench the reaction. Plates were shaken and centrifuged and then incubated 60 minutes at room temperature and then read on a Perkin Elmer Envision (λex=337 nm, λem=665 and 615 nm, TRF delay time=20 μs). HTRF signal=10,000*665 nm reading 615 nm reading. After normalization to untreated controls, the percent inhibition of the HTRF signal at each compound concentration was calculated. The plot of percent inhibition versus the log of compound concentration was fit with a 4-parameter dose response equation to calculate IC50 values.

JAK2, sequence (O60674 849-1124): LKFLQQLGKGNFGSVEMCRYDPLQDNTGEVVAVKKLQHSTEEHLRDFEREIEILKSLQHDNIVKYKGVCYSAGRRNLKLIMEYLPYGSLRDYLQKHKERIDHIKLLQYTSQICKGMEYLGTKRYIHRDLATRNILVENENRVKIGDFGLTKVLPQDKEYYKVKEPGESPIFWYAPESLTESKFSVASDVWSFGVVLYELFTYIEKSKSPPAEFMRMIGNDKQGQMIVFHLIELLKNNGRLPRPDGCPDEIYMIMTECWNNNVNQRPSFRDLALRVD
JAK3, sequence (P52333 822-1111): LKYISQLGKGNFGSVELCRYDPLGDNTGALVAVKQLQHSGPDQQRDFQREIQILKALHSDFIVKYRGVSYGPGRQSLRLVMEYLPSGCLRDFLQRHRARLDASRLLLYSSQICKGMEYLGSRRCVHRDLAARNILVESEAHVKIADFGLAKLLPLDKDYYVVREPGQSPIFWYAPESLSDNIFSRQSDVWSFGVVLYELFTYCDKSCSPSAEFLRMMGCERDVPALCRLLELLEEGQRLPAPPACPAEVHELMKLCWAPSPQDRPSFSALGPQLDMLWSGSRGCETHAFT

| pIC50 [1] | pIC50 [2] | pIC50 ([1]; given as range class) | pIC50 ([2]; given as range class) | Structure (SMILES) |
| --- | --- | --- | --- | --- |
| – | – | 6.30 to 8.00 | < 6.30 | C=C(C)C(=O)Nc1cccc(-c2ncnc3[nH]cc(-c4ccncc4)c23)c1 [Example 21-3, N-(3-(5-(pyridin-4-yl)-7H-pyrrolo[2,3-d]pyrimidin-4-yl)phenyl)methacrylamide] |
| 9.85 | < 5.83 | – | – | CCOC(=O)c1c[nH]c2ncnc(-c3cccc(NC(=O)C4=CC(=O)CC4)c3)c12 [Example 5-36, ethyl 4-(3-{[(3-oxocyclopent-1-en-1-yl)carbonyl]amino}phenyl)-7H-pyrrolo[2,3-d]pyrimidine-5-carboxylate] |
| – | – | 6.30 to 8.00 | < 6.30 | CCOC(=O)c1c[nH]c2ncnc(-c3cccc(NC(=O)/C=C/c4c(C)nn(C)c4C)c3)c12 [Example 5-15, ethyl 4-(3-{[(2E)-3-(1,3,5-trimethyl-1H-pyrazol-4-yl)prop-2-enoyl]amino}phenyl)-7H-pyrrolo[2,3-d]pyrimidine-5-carboxylate] |
| – | – | 6.30 to 8.00 | < 6.30 | CCOC(=O)c1c[nH]c2ncnc(-c3cccc(NC(=O)/C=C/c4cccs4)c3)c12 [Example 5-21, ethyl 4-(3-{[(2E)-3-thiophen-2-ylprop-2-enoyl]amino}phenyl)-7H-pyrrolo[2,3-d]pyrimidine-5-carboxylate] |
| – | – | 6.30 to 8.00 | < 6.30 | c1ccc(Oc2ccccc2-c2c[nH]c3ncnc(-c4ccccc4)c23)cc1 [Example 32-6, 5-(2-phenoxyphenyl)-4-phenyl-7H-pyrrolo[2,3-d]pyrimidine] |
| – | – | 6.30 to 8.00 | 6.30 to 8.00 | CCOC(=O)c1c[nH]c2ncnc(-c3cccc(NC(=O)CC#N)c3)c12 [Example 5-4, ethyl 4-{3-[(cyanoacetyl)amino]phenyl}-7H-pyrrolo[2,3-d]pyrimidine-5-carboxylate] |
| – | – | 6.30 to 8.00 | < 6.30 | CCOC(=O)c1c[nH]c2ncnc(-c3cccc(-c4nc(C#N)ns4)c3)c12 [Example 7-4, Ethyl 4-(3-(cyano-1,2,4-thiadiazol-5-yl)phenyl)-7H-pyrrolo[2,3-d]pyrimidine-5-carboxylate] |
| 10.25 | < 5.83 | – | – | CCOC(=O)c1c[nH]c2ncnc(-c3cccc(NC(=O)C4(C)CO4)c3)c12 (stereo not shown) [Example 18-1, Ethyl-4-(3-(2-methyloxirane-2-carboxamido)phenyl)-7H-pyrrolo[2,3-d]pyrimidine-5-carboxylate] |
| – | – | 6.30 to 8.00 | < 6.30 | CCOC(=O)c1c[nH]c2ncnc(-c3cccc(NC(=O)c4c[nH]c(=O)[nH]c4=O)c3)c12 [Example 5-18, ethyl 4-(3-{[(2,4-dioxo-1,2,3,4-tetrahydropyrimidin-5-yl)carbonyl]amino}phenyl)-7H-pyrrolo[2,3-d]pyrimidine-5-carboxylate] |
| – | – | 6.30 to 8.00 | < 6.30 | c1ccc(Oc2cccc(-c3c[nH]c4ncnc(-c5ccccc5)c34)c2)cc1 [Example 32-4, 5-(3-phenoxyphenyl)-4-phenyl-7H-pyrrolo[2,3-d]pyrimidine] |
| – | – | 6.30 to 8.00 | < 6.30 | CCOC(=O)c1c[nH]c2ncnc(-c3cccc(NC(=O)c4c[nH]c(=O)[nH]4)c3)c12 [Example 5-20, ethyl 4-(3-{[(2-oxo-2,3-dihydro-1H-imidazol-4-yl)carbonyl]amino}phenyl)-7H-pyrrolo[2,3-d]pyrimidine-5-carboxylate] |
| – | – | 6.30 to 8.00 | < 6.30 | CCOC(=O)c1c[nH]c2ncnc(-c3cccc(NC(=O)C4=COCC4)c3)c12 [Example 5-40] |
| – | – | 6.30 to 8.00 | < 6.30 | CCOC(=O)c1c[nH]c2ncnc(-c3cccc(-c4ccnc(C#N)n4)c3)c12 [Example 7-1, Ethyl 4-(3-(2-cyanopyrimidin-4-yl)phenyl)-7H-pyrrolo[2,3-d]pyrimidine-5-carboxylate] |
| 8.72 | < 5.83 | – | – | CCOC(=O)c1c[nH]c2ncnc(-c3cccc(NC(=O)/C=C(/C)C(F)(F)F)c3)c12 [Example 5-34, ethyl 4-(3-{[(2Z)-4,4,4-trifluoro-3-methylbut-2-enoyl]amino}phenyl)-7H-pyrrolo[2,3-d]pyrimidine-5-carboxylate] |

More lines, now with the values behind:

| Structure (SMILES) | pIC50 [1] | pIC50 [2] | pIC50 ([1]; given as range class) | pIC50 ([2]; given as range class) |
| --- | --- | --- | --- | --- |
| C=C(C)C(=O)Nc1cc(F)cc(-c2ncnc3[nH]cc(C(=O)OCC)c23)c1 [Example 4-19, ethyl 4-{3-fluoro-5-[(2-methylacryloyl)amino]phenyl}-7H-pyrrolo[2,3-d]pyrimidine-5-carboxylate] | 10.30 | < 5.83 | – | – |
| CCOC(=O)c1c[nH]c2ncnc(-c3cccc(N)c3)c12 [Example 1-3, Ethyl 4-(3-aminophenyl)-7H-pyrrolo[2,3-d]pyrimidine-5-carboxylate] | – | – | 6.30 to 8.00 | < 6.30 |
| CCOC(=O)c1c[nH]c2ncnc(-c3ccc(COC)c(N)c3)c12 [Example 1-33, ethyl 4-[3-amino-4-(methoxymethyl)phenyl]-7H-pyrrolo[2,3-d]pyrimidine-5-carboxylate] | – | – | 6.30 to 8.00 | < 6.30 |
| CCOC(=O)c1c[nH]c2ncnc(C3=CCC(C#N)CC3)c12 (stereo not shown) [Example 1-90, ethyl 4-(4-cyanocyclohex-1-en-1-yl)-7H-pyrrolo[2,3-d]pyrimidine-5-carboxylate] | – | – | 6.30 to 8.00 | 6.30 to 8.00 |
| CCOC(=O)c1c[nH]c2ncnc(-c3ccc(-n4cccn4)cc3)c12 [Example 1-94, ethyl 4-[4-(1H-pyrazol-1-yl)phenyl]-7H-pyrrolo[2,3-d]pyrimidine-5-carboxylate] | 8.12 | 6.92 | – | – |
| C=C(CC)C(=O)Nc1cccc(-c2ncnc3[nH]cc(C(=O)OCC)c23)c1 [Example 4-8, ethyl 4-{3-[(2-methylidenebutanoyl)amino]phenyl}-7H-pyrrolo[2,3-d]pyrimidine-5-carboxylate] | 9.21 | < 5.83 | – | – |
| CCOC(=O)c1c[nH]c2ncnc(-c3cccc(NCC(F)(F)F)c3)c12 [Example 3-1, Ethyl 4-{3-[(2,2,2-trifluoroethyl)amino]phenyl}-7H-pyrrolo[2,3-d]pyrimidine-5-carboxylate] | – | – | 6.30 to 8.00 | < 6.30 |
| C=C(C)C(=O)Nc1cc(-c2ncnc3[nH]cc(C(=O)OCC)c23)ccc1C#N [Example 4-27, ethyl 4-{4-cyano-3-[(2-methylacryloyl)amino]phenyl}-7H-pyrrolo[2,3-d]pyrimidine-5-carboxylate] | 9.85 | < 5.83 | – | – |
| C=C(C)C(=O)Nc1cc(-c2ncnc3[nH]cc(C(=O)OCC)c23)cn(C)c1=O [Example 4-34, ethyl 4-{1-methyl-5-[(2-methylacryloyl)amino]-6-oxo-1,6-dihydropyridin-3-yl}-7H-pyrrolo[2,3-d]pyrimidine-5-carboxylate] | 8.96 | < 5.83 | – | – |
| CCOC(=O)c1c[nH]c2ncnc(-c3ccc4ncccc4c3)c12 [Example 1-49, ethyl 4-quinolin-6-yl-7H-pyrrolo[2,3-d]pyrimidine-5-carboxylate] | – | – | 6.30 to 8.00 | < 6.30 |
| C=C(C)C(=O)Nc1cccc(-c2ncnc3[nH]cc(C4CCCO4)c23)c1 (stereo not shown) [Example 25, N-(3-(5-(Tetrahydrofuran-2-yl)-7H-pyrrolo[2,3-d]pyrimidin-4-yl)phenyl)methacrylamide] | – | – | 6.30 to 8.00 | < 6.30 |
| CCOC(=O)c1c[nH]c2ncnc(-c3ccc4c(c3)OCO4)c12 [Example 1-48, ethyl 4-(1,3-benzodioxol-5-yl)-7H-pyrrolo[2,3-d]pyrimidine-5-carboxylate] | 8.42 | 7.18 | – | – |
| CCOC(=O)c1c[nH]c2ncnc(-c3cccc(NC(=O)CC)c3)c12 [Example 4-7, ethyl 4-[3-(propanoylamino)phenyl]-7H-pyrrolo[2,3-d]pyrimidine-5-carboxylate] | – | – | 6.30 to 8.00 | < 6.30 |
| CCOC(=O)c1c[nH]c2ncnc(-c3cc4ccccc4s3)c12 [Example 1-50, ethyl 4-(1-benzothiophen-2-yl)-7H-pyrrolo[2,3-d]pyrimidine-5-carboxylate] | 8.32 | 7.27 | – | – |
| CCOC(=O)c1c[nH]c2ncnc(-c3ccccc3)c12 [Example 1-1, Ethyl 4-phenyl-7H-pyrrolo[2,3-d]pyrimidine-5-carboxylate] | 8.26 | 7.04 | – | – |
